Results from BindingDB's records for doi:10.1111/cbdd.12675 (Quaid-I-Azam University, 2016).

Molecular target: Urease (Canavalia ensiformis, UniProt P07374)
Assay: Urease Inhibition Assay
Conditions: pH 8.2
Protocol: The urease inhibitory activity of synthesized sulfonamides (3a-j) was determined by measuring the amount of ammonia produced by the indophenols method described byWeatherburn (27,28). The reaction mixtures, comprising 20 µL of enzyme (Jack bean urease, 5 U/mL) and 20 µL of test compounds in 50 µL buffer (100 mM urea, 0.01 MK2HPO4, 1 mM EDTA and 0.01 M […], pH 8.2), were incubated for 10 min at 37 °C in 96-well plate. Briefly, 40 µL each of phenol reagents (1%, w/v phenol and0.005%, w/v sodium nitroprusside) and 70 µL of alkali reagent (0.5%, w/v NaOH and 0.1% active chloride NaOCl) were added to each well. […] All reactions were performed in triplicate.

Chain of Urease (P07374 whole entry): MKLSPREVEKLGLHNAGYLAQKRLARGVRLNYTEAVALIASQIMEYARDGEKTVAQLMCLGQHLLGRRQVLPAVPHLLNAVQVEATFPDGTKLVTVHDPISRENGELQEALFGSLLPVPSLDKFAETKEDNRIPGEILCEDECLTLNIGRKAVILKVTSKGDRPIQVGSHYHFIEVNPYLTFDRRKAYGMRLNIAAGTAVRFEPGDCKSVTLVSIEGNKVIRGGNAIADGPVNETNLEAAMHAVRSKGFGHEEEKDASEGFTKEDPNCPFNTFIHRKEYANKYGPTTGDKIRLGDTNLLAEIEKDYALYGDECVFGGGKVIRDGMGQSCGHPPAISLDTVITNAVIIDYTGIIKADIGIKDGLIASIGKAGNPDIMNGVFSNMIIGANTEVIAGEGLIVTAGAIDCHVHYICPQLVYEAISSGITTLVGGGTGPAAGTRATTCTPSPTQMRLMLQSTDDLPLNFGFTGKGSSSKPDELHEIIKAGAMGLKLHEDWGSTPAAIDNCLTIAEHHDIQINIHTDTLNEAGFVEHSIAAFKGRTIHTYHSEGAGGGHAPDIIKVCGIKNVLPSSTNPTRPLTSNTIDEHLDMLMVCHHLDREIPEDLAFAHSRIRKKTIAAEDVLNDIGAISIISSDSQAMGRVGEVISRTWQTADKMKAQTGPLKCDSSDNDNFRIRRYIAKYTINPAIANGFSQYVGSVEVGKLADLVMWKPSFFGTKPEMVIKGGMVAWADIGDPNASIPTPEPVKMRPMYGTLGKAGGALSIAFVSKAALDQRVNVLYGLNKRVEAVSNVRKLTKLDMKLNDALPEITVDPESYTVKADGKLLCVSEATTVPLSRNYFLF

Row | Structure (SMILES) | IC50 [nM]
1 | Cc1cs/c(=N\C(=O)c2ccccc2)n1-c1ccc(S(N)(=O)=O)cc1 [(Z)-N-(3-(4-aminosulfonylphenyl)-4-methylthiazol-2(3H)-ylidene) benzamide (3a)] | 96
2 | Cc1cs/c(=N\C(=O)c2ccco2)n1-c1ccc(S(N)(=O)=O)cc1 [(Z)-N-(3-(4-aminosulfonylphenyl)-4-methylthiazol-2(3H)-ylidene) furan-2-carboxamide (3j)] | 83
3 | Cc1cs/c(=N\C(=O)c2ccc([N+](=O)[O-])cc2Cl)n1-c1ccc(S(N)(=O)=O)cc1 [(Z)-N-(3-(4-aminosulfonylphenyl)-4-methylthiazol-2(3H)-ylidene)-2-chloro-4-nitrobenzamide (3i)] | 58
4 | Cc1ccccc1C(=O)/N=c1\scc(C)n1-c1ccc(S(N)(=O)=O)cc1 [(Z)-N-(3-(4-aminosulfonylphenyl)-4-methylthiazol-2(3H)-ylidene)-2-methylbenzamide (3b)] | 87
5 | Cc1cs/c(=N\C(=O)c2ccccc2[N+](=O)[O-])n1-c1ccc(S(N)(=O)=O)cc1 [(Z)-N-(3-(4-aminosulfonylphenyl)-4-methylthiazol-2(3H)-ylidene)-2-nitrobenzamide (3f)] | 350
6 | Cc1cs/c(=N\C(=O)c2cccc(F)c2)n1-c1ccc(S(N)(=O)=O)cc1 [(Z)-N-(3-(4-aminosulfonylphenyl)-4-methylthiazol-2(3H)-ylidene)-3-fluorobenzamide (3h)] | 64
7 | COc1cccc(C(=O)/N=c2\scc(C)n2-c2ccc(S(N)(=O)=O)cc2)c1 [(Z)-N-(3-(4-aminosulfonylphenyl)-4-methylthiazol-2(3H)-ylidene)-3-methoxybenzamide (3g)] | 81
8 | Cc1cccc(C(=O)/N=c2\scc(C)n2-c2ccc(S(N)(=O)=O)cc2)c1 [(Z)-N-(3-(4-aminosulfonylphenyl)-4-methylthiazol-2(3H)-ylidene)-3-methylbenzamide (3c)] | 87
9 | Cc1ccc(C(=O)/N=c2\scc(C)n2-c2ccc(S(N)(=O)=O)cc2)cc1 [(Z)-N-(3-(4-aminosulfonylphenyl)-4-methylthiazol-2(3H)-ylidene)-4-methylbenzamide (3d)] | 72
10 | Cc1cs/c(=N\C(=O)c2ccc([N+](=O)[O-])cc2)n1-c1ccc(S(N)(=O)=O)cc1 [(Z)-N-(3-(4-aminosulfonylphenyl)-4-methylthiazol-2(3H)-ylidene)-4-nitrobenzamide (3e)] | 83
